Reference: the supplement of paper PMC11061612

Tests used:
Test in all cases: combination Emax (second highest fraction inhibited in the dose matrix, 72 h); higher = more inhibition; extreme values may be limits of the assay
NB13 (Neuroblastoma) = system: NB13 (Neuroblastoma)
Outline: (§1)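 After 24 hours at 37°C and 5% CO2 in 1536-well plates, cells in DMEM/F12 or RPMI plus 10% FBS received two-drug dose matrices for 72 hours. Viability came from CellTiter-Glo 2.0 luminescence and was scaled as inhibition, anchored at 0 by vehicle wells and at 1 by blank wells. Combination Emax is taken as the second-highest inhibition in the matrix, and Bliss excess as the observed combination effect less EA + EB − EA·EB, with EA and EB the single-agent effects.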

EW-7 (Ewing's Sarcoma) = system: EW-7 (Ewing's Sarcoma)
Outline: as §1

[1] = system: A253 (Head and Neck Carcinoma)
Outline: as §1

KP-N-YN (Neuroblastoma) = system: KP-N-YN (Neuroblastoma)
Outline: as §1

[2] = system: LU-165 (Small Cell Lung Carcinoma)
Outline: as §1

[3] = system: MDA-MB-436 (Breast Carcinoma)
Outline: as §1

[4] = system: GCT (Other Solid Carcinomas)
Outline: as §1

[5] = system: LS-411N (Colorectal Carcinoma)
Outline: as §1

[6] = system: DMS-53 (Small Cell Lung Carcinoma)
Outline: as §1

[7] = system: HT55 (Colorectal Carcinoma)
Outline: as §1

[8] = system: SW620 (Colorectal Carcinoma)
Outline: as §1

[9] = system: NCI-H441 (Lung Adenocarcinoma)
Outline: as §1

WM1552C (Melanoma) = system: WM1552C (Melanoma)
Outline: as §1

[10] = system: UACC-812 (Breast Carcinoma)
Outline: as §1

[11] = system: HCC1395 (Breast Carcinoma)
Outline: as §1

769-P (Kidney Carcinoma) = system: 769-P (Kidney Carcinoma)
Outline: as §1

[12] = system: NCI-H716 (Colorectal Carcinoma)
Outline: as §1

[13] = system: JHU-022 (Oral Cavity Carcinoma)
Outline: as §1

PEO1 (Ovarian Carcinoma) = system: PEO1 (Ovarian Carcinoma)
Outline: as §1

[14] = system: JHH-2 (Hepatocellular Carcinoma)
Outline: as §1

SMILES | combination Emax (NB13 (Neuroblastoma)) | combination Emax (EW-7 (Ewing's Sarcoma)) | combination Emax [1] | combination Emax (KP-N-YN (Neuroblastoma)) | combination Emax [2] | combination Emax [3] | combination Emax [4] | combination Emax [5] | combination Emax [6] | combination Emax [7] | combination Emax [8] | combination Emax [9] | combination Emax (WM1552C (Melanoma)) | combination Emax [10] | combination Emax [11] | combination Emax (769-P (Kidney Carcinoma)) | combination Emax [12] | combination Emax [13] | combination Emax (PEO1 (Ovarian Carcinoma)) | combination Emax [14]
Cc1c2c(nn1C)CSCc1cc(n(C)n1)CSc1cc(c3ccccc3c1)OCCCc1c(C(=O)O)n(C)c3c-2c(Cl)ccc13 [AZD5991] + CN(C)CCCOc1ccc(-c2ccc3ncc4c(c3c2)n(C2CCOCC2)c(=O)n4C)cn1 [AZD0156] (first compound max 1 µM, 7x7, partner max 1 µM) | 0.282 | 0.376 | 0.908 | 0.252 | 0.286 | 0.167 | 0.502 | 0.136 | 0.716 | 0.276 | 0.294 | 0.246 | 0.76 | 0.491 | 0.537 | 0.243 | 0.294 | 0.172 | 0.15 | –
CC1(C)CCC(CN2CCN(c3ccc(C(=O)NS(=O)(=O)c4ccc(NCC5CCOCC5)c([N+](=O)[O-])c4)c(Oc4cnc5[nH]ccc5c4)c3)CC2)=C(c2ccc(Cl)cc2)C1 [Venetoclax] + C1CN(CCC1(C(=O)N[C@@H](CCO)C2=CC=C(C=C2)Cl)N)C3=NC=NC4=C3C=CN4 [Capivasertib] (first compound max 1 µM, 7x7, partner max 3 µM) | 0.465 | 0.962 | 0.463 | 0.573 | 0.269 | 0.163 | 0.426 | 0.305 | 0.361 | 0.363 | 0.151 | 0.326 | 0.469 | 0.238 | 0.662 | 0.241 | 0.287 | 0.359 | 0.19 | 0.625
CC(=O)Nc1cccc(-n2c(=O)n(C3CC3)c(=O)c3c(Nc4ccc(I)cc4F)n(C)c(=O)c(C)c32)c1 [Trametinib] + Cc1nc(-c2cn3c(n2)-c2ccc(-c4cnn(C(C)(C)C(N)=O)c4)cc2OCC3)n(C(C)C)n1 [Taselisib] (first compound max 1 µM, 7x7, partner max 10 µM) | 0.428 | 1 | 0.954 | 0.528 | 0.373 | 0.527 | 0.764 | 0.946 | 0.294 | 0.859 | 0.77 | 0.639 | 0.908 | 0.461 | 0.654 | 0.681 | 0.977 | 0.903 | 0.825 | 1
COc1nnc2ccc(N3CCC(c4ccc(OCCN5CCN(C)C(=O)[C@H]5C)cc4)CC3)nn12 [AZD5153] + CC1(C)CCC(CN2CCN(c3ccc(C(=O)NS(=O)(=O)c4ccc(NCC5CCOCC5)c([N+](=O)[O-])c4)c(Oc4cnc5[nH]ccc5c4)c3)CC2)=C(c2ccc(Cl)cc2)C1 [Venetoclax] (first compound max 1 µM, 7x7, partner max 1 µM) | 0.474 | 0.334 | 0.22 | 0.673 | 0.468 | 0.227 | 0.595 | 0.728 | 0.887 | 0.513 | 0.431 | 0.381 | 0.397 | 0.261 | 0.411 | 0.701 | 0.615 | 0.417 | 0.368 | 0.357
Cn1cnc2c(F)c(Nc3ccc(Br)cc3Cl)c(C(=O)NOCCO)cc21 [Selumetinib] + C[C@@H]1COCCN1C2=NC(=NC(=C2)C3(CC3)[S@](=N)(=O)C)C4=C5C=CNC5=NC=C4 [AZD6738] (first compound max 10 µM, 7x7, partner max 10 µM) | 0.855 | 0.951 | 0.636 | 0.949 | 0.304 | 0.243 | 0.373 | 0.808 | 0.151 | 0.735 | 0.781 | 0.36 | 0.59 | 0.319 | 0.571 | 0.888 | 0.577 | 0.567 | 0.441 | 0.641
Cc1c2c(nn1C)CSCc1cc(n(C)n1)CSc1cc(c3ccccc3c1)OCCCc1c(C(=O)O)n(C)c3c-2c(Cl)ccc13 [AZD5991] + C[C@@H]1COCCN1C2=NC(=NC(=C2)C3(CC3)[S@](=N)(=O)C)C4=C5C=CNC5=NC=C4 [AZD6738] (first compound max 1 µM, 7x7, partner max 10 µM) | 0.952 | 0.998 | 0.976 | 0.968 | 0.321 | 0.334 | 0.411 | 0.772 | 0.616 | 0.503 | 0.543 | 0.39 | 0.836 | 0.674 | 0.918 | 0.797 | 0.574 | 0.492 | 0.522 | 0.703
CC(=O)c1c(C)c2cnc(Nc3ccc(N4CCNCC4)cn3)nc2n(C2CCCC2)c1=O [Palbociclib] + Cn1cnc2c(F)c(Nc3ccc(Br)cc3Cl)c(C(=O)NOCCO)cc21 [Selumetinib] (first compound max 10 µM, 7x7, partner max 10 µM) | 0.333 | 0.669 | 0.189 | 0.318 | 0.0618 | 0.224 | 0.405 | 0.715 | 0.212 | 0.755 | 0.72 | 0.327 | 0.47 | – | 0.0651 | 0.809 | 0.539 | 0.54 | 0.295 | 0.463
